Measurements reported in patent US9409952B2, “Peptide-compound cyclization method” (Chugai Seiyaku Kabushiki Kaisha, priority 2011, dated 2016).
Like-named read-outs stand apart in the source and are kept apart here. Starred links: 1 amine or outer side, 2 acyl side, 3 side chain; linkers in the order of their positions; H or OH if unused. Positions of bridges follow the written chain, without caps; N, C: chain ends. Non-standard residues stand in square brackets, D forms with d. Residues, ends and D or L forms follow the SMILES beside them. *: point of attachment. NMePhe(3-Cl) = CN[C@@H](Cc1cccc(Cl)c1)C(=O)O; hhPhe = N[C@@H](CCCc1ccccc1)C(=O)O; NMeF = CN[C@@H](Cc1ccccc1)C(=O)O; NMeGABA = CN(CCCC(=O)[*:2])[*:1]; NMeI = CC[C@H](C)[C@H](NC)C(=O)O; NMeβAla = CN(CCC(=O)[*:2])[*:1]; NMeL = CN[C@@H](CC(C)C)C(=O)O; NMeV = CN[C@H](C(=O)O)C(C)C; NMeA = CN[C@@H](C)C(=O)O; Piperidide = C1CCN(*)CC1; dNMeA = CN[C@H](C)C(=O)O; β3hA = C[C@H](N)CC(=O)O; Sar = CNCC(=O)O; tBu = CC(C)(C)*

Columns and labels:
[1] = PAMPA (parallel artificial membrane permeability assay); format: in vitro ADME; details: PAMPA
Method in brief: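 Artificial membrane was 10% (w/v) egg lecithin plus 0.5% (w/v) cholesterol in dodecane on a PVDF filter. A 10 mM DMSO stock was added at 0.5% (v/v) to donor buffer (50 mM MOPSO, pH 6.5, 5.0% glycocholic acid). After 18 h at 37 °C, LC/MS or LC/UV gave donor and acceptor levels for Pe.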

[2] = Metabolic stability in human hepatic microsome; format: in vitro ADME; details: microsomes
[3] = membrane permeation rate (Pe), 50 mM MOPSO buffer pH 6.5 with 5.0% glycocholic acid, 37° C., 18 hours, read-out: iPAMPA Pe
[4] = pH 7.4, human hepatic microsome, NADPH(+), read-out: CL NADPH(+)

Compound | Papp at 18 hours, 50 µM [1, 3] [×10⁻⁶ cm/s] | microsomal CLint at 1 uM [2, 4] [µL/min/mg] | Papp at 18 hours, 50 µM ([1]; pH 6.5) [×10⁻⁶ cm/s] | microsomal CLint at 1 uM ([2]; human, pH 7.4, CL NADPH(+)) [µL/min/mg]
CC(C)C[C@H]1C(=O)N(C)[C@@H](C)C(=O)N(C)[C@@H](C(C)C)C(=O)N[C@@H](C)C(=O)N[C@H](C(=O)N(C)[C@@H](Cc2ccccc2)C(=O)N(C)[C@@H](Cc2ccccc2)C(=O)N[C@@H](C)C(=O)N2CCCCC2)CC(=O)N(C)[C@H](C)C(=O)N(C)CC(=O)N[C@@H]([C@@H](C)O)C(=O)N(C)[C@@H](C)C(=O)N[C@@H](Cc2ccccc2)C(=O)N1C [DP-507] ([dNMeA][Sar]T[NMeA]F[NMeL][NMeA][NMeV]AD[NMeF][NMeF]A-Piperidide; lactam N-10) | 11 | 17 | – | –
CC[C@H](C)[C@H]1C(=O)N(C)[C@@H](CC(C)C)C(=O)N[C@H](C(=O)N2CCCCC2)CC(=O)N(C)CCC(=O)N(C)[C@@H](CC(C)C)C(=O)N[C@@H]([C@@H](C)O)C(=O)N(C)[C@@H](C)C(=O)N(C)[C@@H](Cc2ccccc2)C(=O)N[C@@H](C)C(=O)N(C)[C@@H](Cc2ccccc2)C(=O)N[C@@H](CC(C)C)C(=O)N1C [DP-240] ([NMeβAla][NMeL]T[NMeA][NMeF]A[NMeF]L[NMeI][NMeL]D-Piperidide; lactam N-11) | 38 | 125 | – | –
CC[C@H](C)[C@H]1C(=O)N[C@@H](C)C(=O)N[C@H](C(=O)N2CCCCC2)CC(=O)N[C@H](C(C)C)C(=O)N[C@@H](Cc2ccccc2)C(=O)N(C)CC(=O)N[C@@H](CC(C)C)C(=O)N[C@@H](Cc2ccccc2)C(=O)N2CCC[C@H]2C(=O)N[C@@H]([C@@H](C)O)C(=O)N[C@@H](COC(C)(C)C)C(=O)N(C)[C@@H](CC(C)C)C(=O)N1C [DP-55] ([dV]F[Sar]LFPTS(tBu)[NMeL][NMeI]AD-Piperidide; lactam N-12) | – | – | 21 | 79
CC[C@H](C)[C@@H]1NC(=O)[C@H](CC(C)C)NC(=O)[C@H](C(C)C)NC(=O)[C@H](CC(C)C)N(C)C(=O)[C@H](CC(C)C)NC(=O)[C@H](CCCc2ccccc2)NC(=O)[C@H]([C@@H](C)O)NC(=O)[C@H](C)N(C)C(=O)[C@H](CC(C)C)NC(=O)[C@H](C)N(C)C(=O)C[C@@H](C(=O)N2CCCCC2)NC1=O [DP-729] ([NMeA]L[NMeA]T[hhPhe]L[NMeL]VLID-Piperidide; lactam N-11) | 4.7 | 54 | – | –
CC(C)C[C@H]1C(=O)N(C)[C@@H](C)C(=O)N[C@@H]([C@@H](C)O)C(=O)N(C)[C@@H](C)C(=O)N(C)[C@@H](Cc2ccccc2)C(=O)N(C)CC(=O)N[C@H](C(=O)N(C)[C@@H](Cc2ccccc2)C(=O)N[C@@H](C)C(=O)N2CCCCC2)CC(=O)N(C)[C@@H](C)C(=O)N(C)[C@@H](C)C(=O)N[C@@H](C)C(=O)N[C@@H](Cc2ccccc2)C(=O)N1C [DP-345] ([NMeA][NMeA]AF[NMeL][NMeA]T[NMeA][NMeF][Sar]D[NMeF]A-Piperidide; lactam N-11) | 2.8 | 7 | – | –
CC[C@H](C)[C@H](NC(=O)[C@H](Cc1ccccc1)N(C)C(=O)[C@H](CC(C)C)N(C)C(=O)[C@@H](NC(=O)[C@@H]1CC(=O)N(C)[C@@H](C)C(=O)N[C@@H]([C@@H](C)CC)C(=O)N(C)[C@@H](CC(C)C)C(=O)N[C@@H]([C@@H](C)O)C(=O)N[C@@H](CC(C)C)C(=O)N(C)[C@@H](Cc2cccc(Cl)c2)C(=O)N1)C(C)C)C(=O)N1CCCCC1 [DP-920] ([NMeA]I[NMeL]TL[NMePhe(3-Cl)]DV[NMeL][NMeF]I-Piperidide; lactam N-7) | 0.22 | 27 | – | –
CC(C)C[C@H]1C(=O)N(C)[C@@H](Cc2ccccc2)C(=O)N[C@@H]([C@@H](C)O)C(=O)N(C)[C@@H](C)C(=O)N(C)[C@@H](CC(C)C)C(=O)N(C)[C@@H](CC(C)C)C(=O)N[C@H](C(=O)N2CCCCC2)CC(=O)N(C)CCCC(=O)N[C@@H](COC(C)(C)C)C(=O)N(C)CC(=O)N1C [DP-122] ([NMeGABA]S(tBu)[Sar][NMeL][NMeF]T[NMeA][NMeL][NMeL]D-Piperidide; lactam N-10) | – | – | 32 | 169
CC(C)C[C@H]1C(=O)N(C)[C@@H](CC(C)C)C(=O)N[C@@H]([C@@H](C)O)C(=O)N(C)[C@@H](C)C(=O)N[C@H](C(=O)N(C)[C@@H](Cc2ccccc2)C(=O)N(C)[C@@H](Cc2ccccc2)C(=O)N[C@@H](C)C(=O)N2CCCCC2)CC(=O)N(C)CCC(=O)N(C)CC(=O)N(C)[C@@H](Cc2ccccc2)C(=O)N[C@@H](C)C(=O)N1C [DP-398] ([NMeβAla][Sar][NMeF]A[NMeL][NMeL]T[NMeA]D[NMeF][NMeF]A-Piperidide; lactam N-9) | 24 | 123 | – | –
CC[C@H](C)[C@@H]1NC(=O)[C@H](CC(C)C)NC(=O)[C@H](C(C)C)NC(=O)[C@H](CC(C)C)N(C)C(=O)[C@H](CC(C)C)NC(=O)[C@H](Cc2ccccc2)NC(=O)[C@H]([C@@H](C)O)NC(=O)[C@H](CC(C)C)NC(=O)[C@H](Cc2ccccc2)NC(=O)[C@@H](C)N(C)C(=O)C[C@@H](C(=O)N2CCCCC2)NC1=O [DP-416] ([dNMeA]FLTFL[NMeL]VLID-Piperidide; lactam N-11) | 0.23 | 20 | – | –
CC[C@H](C)[C@@H]1NC(=O)CN(C)C(=O)[C@H]([C@@H](C)O)NC(=O)[C@H](C(C)C)N(C)C(=O)[C@@H](C)N(C)C(=O)C[C@@H](C(=O)N2CCCCC2)NC(=O)[C@H](CC(C)C)NC(=O)[C@H](Cc2ccccc2)N(C)C(=O)[C@H](CC(C)C)N(C)C(=O)[C@H](C)N(C)C1=O [DP-433] ([dNMeA][NMeV]T[Sar]I[NMeA][NMeL][NMeF]LD-Piperidide; lactam N-10) | 45 | 35 | – | –
CC(C)C[C@H]1C(=O)NCC(=O)N[C@H](C(=O)N2CCCCC2)CC(=O)N[C@H](C)C(=O)N[C@@H]([C@@H](C)O)C(=O)N(C)[C@@H](C)C(=O)N(C)[C@@H](Cc2ccccc2)C(=O)N[C@@H](COC(C)(C)C)C(=O)N(C)[C@@H](Cc2ccccc2)C(=O)N1C [DP-52] ([dA]T[NMeA][NMeF]S(tBu)[NMeF][NMeL]GD-Piperidide; lactam N-9) | – | – | 23 | 136
CC[C@H](C)[C@@H]1NC(=O)[C@H](CC(C)C)N(C)C(=O)CN(C)C(=O)[C@H]([C@@H](C)O)NC(=O)[C@H](C)N(C)C(=O)C[C@@H](C(=O)N(C)[C@@H](Cc2ccccc2)C(=O)N(C)[C@@H](C)C(=O)N[C@H](C(=O)N[C@@H](C)C(=O)N2CCCCC2)C(C)C)NC(=O)[C@H](CC(C)C)N(C)C(=O)[C@H](Cc2ccccc2)N(C)C(=O)[C@H](CC(C)C)N(C)C1=O [DP-660] ([NMeA]T[Sar][NMeL]I[NMeL][NMeF][NMeL]D[NMeF][NMeA]VA-Piperidide; lactam N-9) | 27 | 222 | – | –
CC[C@H](C)[C@H]1C(=O)NCC(=O)N(C)[C@@H](Cc2ccccc2)C(=O)N(C)[C@@H](Cc2ccccc2)C(=O)N(C)[C@@H](CC(C)C)C(=O)N(C)[C@@H](CC(C)C)C(=O)N[C@H](C(=O)N2CCCCC2)CC(=O)N(C)[C@H](C)C(=O)N[C@@H]([C@@H](C)O)C(=O)N(C)[C@@H](C)C(=O)N1C [DP-74] ([dNMeA]T[NMeA][NMeI]G[NMeF][NMeF][NMeL][NMeL]D-Piperidide; lactam N-10) | – | – | 29 | 118
CC[C@H](C)[C@@H]1NC(=O)[C@H](CC(C)C)N(C)C(=O)[C@H](Cc2cccc(Cl)c2)N(C)C(=O)[C@@H](C(C)C)NC(=O)C[C@H](C)NC(=O)[C@H](CC(C)C)N(C)C(=O)[C@H](C)N(C)C(=O)[C@H]([C@@H](C)O)NC(=O)[C@H](Cc2cccc(Cl)c2)N(C)C(=O)[C@H](C)N(C)C1=O [DP-812] (cyclo(I[NMeA][NMePhe(3-Cl)]T[NMeA][NMeL][β3hA][dV][NMePhe(3-Cl)][NMeL])) | 34 | 222 | – | –
CC(C)C[C@H]1C(=O)N(C)[C@@H](C)C(=O)N[C@H](C(=O)N(C)[C@@H](Cc2ccccc2)C(=O)N(C)[C@@H](Cc2ccccc2)C(=O)N[C@@H](C)C(=O)N2CCCCC2)CC(=O)N(C)[C@H](C)C(=O)N(C)[C@@H](Cc2ccccc2)C(=O)N(C)CC(=O)N[C@@H]([C@@H](C)O)C(=O)N[C@@H](C)C(=O)N(C)[C@@H](C)C(=O)N1C [DP-463] ([dNMeA][NMeF][Sar]TA[NMeA][NMeL][NMeA]D[NMeF][NMeF]A-Piperidide; lactam N-9) | 3.1 | 10 | – | –
CC[C@H](C)[C@@H]1NC(=O)[C@H](C)N(C)C(=O)[C@H](CC(C)C)N(C)C(=O)CCN(C)C(=O)C[C@@H](C(=O)N(C)[C@@H](Cc2ccccc2)C(=O)N[C@@H](C)C(=O)N2CCCCC2)NC(=O)[C@H](CC(C)C)N(C)C(=O)[C@H](Cc2ccccc2)N(C)C(=O)[C@H](Cc2ccccc2)N(C)C(=O)[C@H](C)N(C)C(=O)[C@H]([C@@H](C)O)NC(=O)[C@H](CC(C)C)N(C)C1=O [DP-281] ([NMeβAla][NMeL][NMeA]I[NMeL]T[NMeA][NMeF][NMeF][NMeL]D[NMeF]A-Piperidide; lactam N-11) | – | – | 17 | 28
CC[C@H](C)[C@@H]1NC(=O)[C@H](CC(C)C)NC(=O)[C@@H](C)N(C)C(=O)C[C@@H](C(=O)N2CCCCC2)NC(=O)[C@H](C(C)C)N(C)C(=O)[C@H](CC(C)C)NC(=O)[C@H](Cc2ccccc2)NC(=O)[C@H]([C@@H](C)O)NC(=O)[C@H](CC(C)C)NC(=O)CN(C)C(=O)[C@H](C)NC1=O [DP-475] ([dNMeA]LIA[Sar]LTFL[NMeV]D-Piperidide; lactam N-11) | 16 | 35 | – | –
